Test results taken from US12376590B2, “Compositions comprising pyridine carboxylate herbicides and azole carboxylate safeners” (Corteva Agriscience LLC, priority 2018, dated 2025).

Key:
Assay in all cases: Greenhouse postemergence herbicidal safening trial, visual injury after 20-22 d
spring barley (HORVS) = format: in vivo, Hordeum vulgare; details: applied alone
Source text: (§1) Greenhouse Trial Methodology—Evaluation of Postemergence Herbicidal Safening in Crops
(§2) Seeds of the desired test plant species were planted in a 90:10% v/v (volume/volume) mixture of PRO-MIX® BX (Premier Tech Horticulture, Quakertown, PA, USA) and PROFILE® GREENS GRADE™ (Profile Products LLC, Buffalo Grove, IL, USA) planting mixture, which typically has a pH of 5.2 to 6.2 and an organic matter content of at least 50 percent, in plastic pots with a surface area of 103.2 square centimeters (cm^2). When required to ensure good germination and healthy plants, a fungicide treatment and/or other chemical or physical treatment was applied. The plants were grown for 7-36 days (d) in a greenhouse with an approximate 14-hour (h) photo-period which was maintained at about 23° C. during the day and 22° C. during the night. Nutrients and water were added on a regular basis and supplemental lighting was provided with overhead metal halide 1000-Watt lamps as necessary. The plants were employed for testing when they reached the second or third true leaf stage.
(§3) Emulsifiable concentrates of each of each pyridine carboxylate herbicide (Compound A or Compound B) were prepared at 100 grams acid equivalent per liter (g ae/L). An aliquot of each emulsifiable concentrate was placed in a 25 mL glass vial and diluted with an aqueous mixture of 1.25% (v/v) ACTIROB® B esterified rapeseed oil (Bayer Crop Science, Research Triangle Park, NC, USA) or MSO® Concentrate with LECI-TECH® methylated soybean oil (Loveland Products, Loveland, CO, USA) to obtain concentrated stock solutions at the highest application rate for each herbicide, based upon a 12 milliliter (mL) application volume at a rate of 187 liters per hectare (L/ha). The concentrated stock solutions were further diluted with an aqueous mixture of 1.25% v/v ACTIROB® B or MSO® Concentrate with LECI-TECH® to obtain stock solutions at reduced application rates for each herbicide. Spray solutions of the herbicide combinations (Compound A or Compound B plus safener) were prepared by adding weighed amounts or aliquots of the azole carboxylate safener to the stock solutions of Compound A or Compound B to form 12-mL spray solutions in two-way combinations.
(§4) The spray solutions were applied to the plant material with an overhead Mandel track sprayer equipped with 8002E nozzles calibrated to deliver 187 L/ha over an application area of 0.503 square meters (m^2) at a spray height of 18 inches (43 centimeters (cm)) above the average plant canopy. Control plants were sprayed in the same manner with the solvent blank. All herbicide (component a) application rates are given as “g ae/ha” and all safener (component b) application rates are given as “g ai/ha.”
(§5) The treated plants and control plants were placed in a greenhouse as described above and watered by sub-irrigation to prevent wash-off of the test compounds. After 20-22 d, the condition of the test plants as compared with that of the control plants was determined visually and scored on a scale of 0 to 100 percent where 0 corresponds to no injury and 100 corresponds to complete kill.

wild chamomile (MATCH) = format: in vivo, Matricaria chamomilla; details: applied alone
Source text: as §1, §2, §3, §4, §5

blackgrass (ALOMY) = format: in vivo, Alopecurus myosuroides
Source text: as §1, §2, §3, §4, §5

winter rape (BRSNW) = format: in vivo, Brassica napus
Source text: as §1, §2, §3, §4, §5

wild buckwheat (POLCO) = format: in vivo, Polygonum convolvulus
Source text: as §1, §2, §3, §4, §5

Johnson grass (SORHA) = format: in vivo, Sorghum halepense
Source text: as §1, §2, §3, §4, §5

spring wheat (TRZAS) = format: in vivo, Triticum aestivum; details: applied alone
Source text: as §1, §2, §3, §4, §5

winter wheat (TRZAW) = format: in vivo, Triticum aestivum
Source text: as §1, §2, §3, §4, §5

large crabgrass (DIGSA) = format: in vivo, Digitaria sanguinalis
Source text: as §1, §2, §3, §4, §5

barnyardgrass (ECHCG) = format: in vivo, Echinochloa crus-galli
Source text: as §1, §2, §3, §4, §5

wild pansy (VIOTR) = format: in vivo, Viola tricolor
Source text: as §1, §2, §3, §4, §5

pigweed (AMARE) = format: in vivo, Amaranthus retroflexus
Source text: as §1, §2, §3, §4, §5

Measured: % visual injury Ob

CCOC(=O)C1=NN(c2ccc(Cl)cc2Cl)C(C)(C(=O)OCC)C1 (stereo not drawn) [Mefenpyr-diethyl, mefenpyr-diethyl]
0%: spring barley (HORVS); 10 g/ha | spring barley (HORVS); 20 g/ha | spring barley (HORVS); 40 g/ha | spring barley (HORVS); 80 g/ha | spring barley (HORVS); 120 g/ha | wild chamomile (MATCH); 10 g/ha | wild chamomile (MATCH); 20 g/ha | wild chamomile (MATCH); 40 g/ha | blackgrass (ALOMY); Mefenpyr-diethyl 20 g/ha | blackgrass (ALOMY); Mefenpyr-diethyl 40 g/ha | blackgrass (ALOMY); Mefenpyr-diethyl 80 g/ha | winter rape (BRSNW); Mefenpyr-diethyl 20 g/ha | winter rape (BRSNW); Mefenpyr-diethyl 40 g/ha | winter rape (BRSNW); Mefenpyr-diethyl 80 g/ha | wild buckwheat (POLCO); Mefenpyr-diethyl 20 g/ha | wild buckwheat (POLCO); Mefenpyr-diethyl 40 g/ha | wild buckwheat (POLCO); Mefenpyr-diethyl 80 g/ha | Johnson grass (SORHA); Mefenpyr-diethyl 20 g/ha | Johnson grass (SORHA); Mefenpyr-diethyl 40 g/ha | Johnson grass (SORHA); Mefenpyr-diethyl 80 g/ha | spring wheat (TRZAS); 10 g/ha | spring wheat (TRZAS); 20 g/ha | spring wheat (TRZAS); 40 g/ha | spring wheat (TRZAS); 80 g/ha | spring wheat (TRZAS); 120 g/ha | winter wheat (TRZAW); Mefenpyr-diethyl 20 g/ha | winter wheat (TRZAW); Mefenpyr-diethyl 40 g/ha | winter wheat (TRZAW); Mefenpyr-diethyl 80 g/ha | winter wheat (TRZAW); applied alone, 20 g/ha | winter wheat (TRZAW); applied alone, 40 g/ha | winter wheat (TRZAW); applied alone, 80 g/ha | winter wheat (TRZAW); applied alone, 120 g/ha | large crabgrass (DIGSA); Mefenpyr-diethyl 20 g/ha | large crabgrass (DIGSA); Mefenpyr-diethyl 40 g/ha | large crabgrass (DIGSA); Mefenpyr-diethyl 80 g/ha | barnyardgrass (ECHCG); Mefenpyr-diethyl 20 g/ha | barnyardgrass (ECHCG); Mefenpyr-diethyl 40 g/ha | barnyardgrass (ECHCG); Mefenpyr-diethyl 80 g/ha | wild pansy (VIOTR); Mefenpyr-diethyl 20 g/ha | wild pansy (VIOTR); Mefenpyr-diethyl 40 g/ha | wild pansy (VIOTR); Mefenpyr-diethyl 80 g/ha | pigweed (AMARE); Mefenpyr-diethyl 20 g/ha | pigweed (AMARE); Mefenpyr-diethyl 40 g/ha | pigweed (AMARE); Mefenpyr-diethyl 80 g/ha | pigweed (AMARE); applied alone, 20 g/ha | pigweed (AMARE); applied alone, 40 g/ha | pigweed (AMARE); applied alone, 80 g/ha | pigweed (AMARE); applied alone, 120 g/ha
